The target in experiment [1] is T1, Human immunodeficiency virus type 1 integrase (Human immunodeficiency virus 1, UniProt Q7ZJM1). The experiment can be described thus: Inhibition of HIV1 integrase 3'-end processing activity.
In experiment [2] the target is T1, Human immunodeficiency virus type 1 integrase. Nature of the experiment: Inhibition of HIV1 integrase strand transfer activity.
For experiment [3] the target is unchanged. The experiment can be described thus: Inhibition of HIV1 integrase 3'-end processing activity in presence of magnesium cofactor.
For experiment [4] the target is unchanged. The experiment can be described thus: Inhibition of HIV1 integrase strand transfer activity in presence of magnesium cofactor.

A value given as a limit tells only on which side of the number the result lay.

T1 sequence (Q7ZJM1 whole entry): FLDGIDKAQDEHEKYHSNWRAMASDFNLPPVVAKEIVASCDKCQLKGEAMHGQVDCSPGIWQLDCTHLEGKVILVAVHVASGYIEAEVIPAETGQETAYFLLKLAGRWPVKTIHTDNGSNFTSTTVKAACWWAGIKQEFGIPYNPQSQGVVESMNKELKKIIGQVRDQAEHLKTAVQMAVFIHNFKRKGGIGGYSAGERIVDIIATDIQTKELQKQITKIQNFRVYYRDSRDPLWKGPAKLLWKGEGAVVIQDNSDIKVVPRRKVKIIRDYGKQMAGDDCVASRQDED

On to `O=C(/C=C/c1ccccc1O)c1ccc(O)cc1O`, for which the IC50 (usually the concentration at which inhibition is half-maximal) is 53 µM in experiment [1] and 47 µM in experiment [2].
As to `CCOc1ccc(-c2c(C#N)c(N)nc(SCC(=O)c3cc4cc(Br)cc(Br)c4oc3=O)c2C#N)cc1`, the 50% inhibitory concentration (IC50) was found to be 6 µM in experiment [1], 17 µM in experiment [3], 9.6 µM in experiment [4] and 4 µM in experiment [2].
With `O=[N+]([O-])c1cc(Br)cc(/C=N/Nc2nc(Nc3ccccc3)nc(Nc3ccccc3)n2)c1O`, the IC50 in experiment [1] was 1.9 µM; in experiment [2], 0.6 µM.
The corresponding values for `CCc1cccc2c(SCC(=O)NNC(=O)c3ccccc3[N+](=O)[O-])nc(-c3ccc(F)cc3)nc12` are over 100 µM and 100 µM.
`O=C(O)c1cc(-c2ccc(/C=N/Nc3nc4nonc4nc3Nc3ccccc3F)o2)ccc1Cl`: the IC50 came to 7 µM in experiment [1] and 4 µM in experiment [2].
Turning to `CCN(CC)c1nc(N/N=C/c2ccc([N+](=O)[O-])cc2)nc(Nc2ccc(C)c(Cl)c2)n1`, the IC50 in experiment [1] turned out to be 192 µM; in experiment [2], 200 µM.
The like results for `O=C(Nc1ccccc1C(=O)O)c1ccc(C(=O)Nc2ccccc2C(=O)O)cc1` were, in that order, 67 µM and 32 µM.
The like results for `COc1cccc(/C=C/C(=O)c2ccccc2)c1O` were, in that order, 2 µM and 2 µM.
Consider `COc1cc([N+](=O)[O-])cc(/C=N/Nc2nc(Nc3ccccc3)nc(Nc3ccccc3)n2)c1O`, for which the 50% inhibitory concentration (IC50) in experiment [1] and in experiment [2] was 29 µM throughout.
With `O=C(CNC(=O)c1ccc(Cl)cc1)OCC(=O)c1ccc([N+](=O)[O-])cc1`, the values for the IC50 in experiment [1] and in experiment [2] were 579 µM and 542 µM, respectively.
In the case of `Cc1ccc(NP(=O)(Oc2ccccc2)Oc2ccccc2)cc1`, the IC50 in experiment [1] and in experiment [2] was over 1000 µM each time.
Take `Cc1ccc(O)c(/C=N/Nc2nc3c(c(=O)[nH]c(=O)n3C)n2Cc2ccccc2)c1`: the IC50 in experiment [1] and in experiment [2] was over 100 µM in each case.

(Values after ChEMBL document CHEMBL1139988, “Discovery of structurally diverse HIV-1 integrase inhibitors based on a chalcone pharmacophore” (Bioorg Med Chem, 2007).)
